The record followed here is patent US10752588B2 (The Broad Institute, Inc., priority 2014, dated 2020).

The target in series [1] is T1, human D2R/β-arrestin (Homo sapiens (Human), UniProt P14416). In words: Gi/cAMP agonist assay (Lance Ultra cAMP, Forskolin). Type of series: cell-based. The settings on record: CHO-K1 cell line expressing human D2R/β-arrestin. An outline of the steps: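 Read-out was Lance Ultra competitive TR-FRET (Eu-cAMP tracer plus ULight-anti-cAMP) following forskolin-induced cAMP production. Before forskolin stimulation, compounds were pin-transferred onto the seeded cells for 10 min at 37 °C.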

Series [2] has as its target D2 (Homo sapiens (Human), UniProt P14416). In words: D2 radioligand binding assay.
The target in series [3] is T1, human D2R/β-arrestin. In words: cell-based. Conditions: β-arrestin Antagonist, CHO-K1 cell line expressing human D2R/β-arrestin; quinpirole used as agonist.
Series [4] concerns the target T1, human D2R/β-arrestin. In words: β-Arrestin agonist assay (PathHunter). It counts as cell-based. The settings on record: CHO-K1 cell line expressing human D2R/β-arrestin. An outline of the steps:
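Readout follows addition of Buffer:Emerald II:Galactor-Star reagent (19:5:1) to agonist-treated plates, measured as luminescence or fluorescence.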

For series [5], the target named is T1, human D2R/β-arrestin. Conditions: read-out: cAMP Antagonist.
Series [6] is described as follows: Microsomal stability, mouse.
The nature of series [7]: Plasma stability, mouse.
The target in series [8] is T1, human D2R/β-arrestin. In words: cell-based. Conditions: cAMP Antagonist, CHO-K1 cell line expressing human D2R/β-arrestin; quinpirole used as agonist.
Series [9] can be described thus: Solubility in PBS. It counts as physicochemical. Conditions: aqueous buffer.
In series [10] the target is T1, human D2R/β-arrestin. The settings on record: read-out: β-arrestin Antagonist.
The test system of series [11] is plasma protein. In words: Plasma protein binding, mouse. It counts as in vitro ADME. The settings on record: for fraction unbound: plasma, read-out: Plasma Protein Binding % bound.
The nature of series [12]: Plasma stability, human. It counts as in vitro ADME.
The nature of series [13]: Microsomal stability, rat. It counts as in vitro ADME.
Series [14] can be described thus: Microsomal stability, human. Type of series: in vitro ADME.
Series [15] relates to plasma protein. In words: Plasma protein binding, human. Type of series: in vitro ADME. The settings on record: plasma, read-out: Plasma Protein Binding % bound.
A short description of series [16]: Plasma stability, rat. It counts as in vitro ADME.
Series [17] relates to plasma protein. In words: Plasma protein binding, rat. Type of series: in vitro ADME. Conditions: plasma, read-out: Plasma Protein Binding % bound.
Setting [18] is: CHO-K1 cell line expressing human D2R/β-arrestin, quinpirole used as agonist.

SMILES strings stand for the structures. Converted amounts (≈) assume the structure as drawn. Where two headings read alike, the source gives them in different places.

T1 sequence (P14416 whole entry): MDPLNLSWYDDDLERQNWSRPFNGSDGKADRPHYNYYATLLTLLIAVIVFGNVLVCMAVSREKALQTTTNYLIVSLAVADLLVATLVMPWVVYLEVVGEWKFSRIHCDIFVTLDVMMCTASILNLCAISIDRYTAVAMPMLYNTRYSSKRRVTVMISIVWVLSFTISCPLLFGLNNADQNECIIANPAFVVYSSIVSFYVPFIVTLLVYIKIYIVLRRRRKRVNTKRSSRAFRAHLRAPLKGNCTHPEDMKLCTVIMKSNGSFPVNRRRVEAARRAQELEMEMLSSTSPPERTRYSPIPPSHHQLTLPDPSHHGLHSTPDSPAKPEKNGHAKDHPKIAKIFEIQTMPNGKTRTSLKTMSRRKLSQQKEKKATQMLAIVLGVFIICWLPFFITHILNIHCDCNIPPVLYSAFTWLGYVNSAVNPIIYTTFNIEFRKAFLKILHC
Sequence of D2 (P14416 whole entry): as above

One may read the EC50 as the concentration needed to bring the measured effect to its halfway point. A low value points to an effect from little substance. What is called Ki is a measure of affinity in units of concentration, obtained from inhibition or displacement. High values mean lower affinity, low ones higher affinity. Consider `CC1(C(=O)NC(c2ccc(F)cc2)c2ccccn2)CCN(CCOc2ccccc2)CC1` (single isomer, unassigned) [Compound 69b, N-((4-fluorophenyl)(pyridin-2-yl)methyl)-4-methyl-1-(2-phenoxyethyl)piperidine-4-carboxamide], for which the values for the EC50 in series [1] and in series [4] were below 100 nM and 100 to 1000 nM, respectively. In addition, in [2], the Ki lay within 100 to 1000 nM. Also, the IC50 in series [3] was 100 to 1000 nM; in [5] (setting [18]), above 30000 nM.
Usually solubility stands for how much of the substance goes into solution per volume. `CN(CC1CCN(CCOc2ccccc2F)CC1)C(c1ccc(Cl)cc1)c1ccccn1` (single isomer, unassigned) [Compound 72a, 1-(4-chlorophenyl)-N-((1-(2-(2-fluorophenoxy)ethyl)piperidin-4-yl)methyl)-N-methyl-1-(pyridin-2-yl)methanamine]: the “Microsomal Stability: % remaining after 60 minutes” value (from here on “Microsomal Stability: % remaining”) in [6] is “m0%”. Further, the EC50 in series [1] was in the range of 100 to 1000 nM; in [4], 1000 to 10000 nM. Moreover, in series [7], the “Plasma Stability: % remaining after 5 hours” value (“Plasma Stability: % remaining” below) is listed as “m100%”. Besides, the results for the IC50 in [8] and in [3] were above 30000 nM and 100 to 1000 nM, respectively. Besides, the Ki in series [2] was 100 to 1000 nM. For the same compound, in series [9], the solubility turned out to be 1.4 µM (≈ 0.655 µg/mL).
In the case of `CN(CC1CCN(CCOc2ccccc2)CC1)C(c1ccc(Cl)cc1)c1ccccn1` (single isomer, unassigned) [Compound 79b, 1-(4-chlorophenyl)-N-methyl-N-((1-(2-phenoxyethyl)piperidin-4-yl)methyl)-1-(pyridin-2-yl)methanamine], the “Microsomal Stability: % remaining” value in series [6] was “m0%”. In addition, the values for the EC50 in series [1] and in series [4] were 100 to 1000 nM and above 30000 nM, respectively. In addition, in series [7], the “Plasma Stability: % remaining” value is recorded as “m100%”. The IC50 in [8] was above 30000 nM; in [10] (setting [18]) it was 1000 to 10000 nM. Also, the Ki in series [2] lay within 100 to 1000 nM. For the same compound, the concentration in solution in [9] (solubility) came to 8 µM (≈ 3.6 µg/mL).
Turning to `O=C(NC(c1ccc2c(c1)OC(F)(F)O2)c1ccccn1)C1CCN(CCOc2ccccc2)CC1` (single isomer, unassigned) [Compound 119b], the “Microsomal Stability: % remaining” value in series [6] was “m51%”. In addition, the values for the half-maximal effective concentration (EC50) in [1] and in [4] were below 100 nM and 100 to 1000 nM, respectively. Besides, the “Plasma Stability: % remaining” value in series [7] was “m100%”. For the same compound, the “Plasma Protein Binding % bound” value in series [11] is listed as “m97.4%”. Also, the IC50 was 1000 to 10000 nM in series [10] and above 30000 nM in series [5].
For the compound `CC1(C(=O)NC(c2ccc(Cl)cc2)c2ccccn2)CCN(CCOc2ccccc2)CC1` (single isomer, unassigned) [Compound 144a, N-((4-chlorophenyl)(pyridin-2-yl)methyl)-4-methyl-1-(2-phenoxyethyl)piperidine-4-carboxamide], the “Microsomal Stability: % remaining” value in [6] is listed as “m1%”. Also, the EC50 in series [1] and in [4] was below 100 nM in each case. Moreover, the values for the IC50 in series [8] and in series [3] were above 30000 nM and below 100 nM, respectively. The Ki in series [2] is below 100 nM.
Regarding `O=C(NC(c1ccc(Cl)cc1)c1ccccn1)C1CCN(CCOc2ccccc2F)CC1` (centres unmarked) [Compound 3], the entries for the “Microsomal Stability: % remaining” value in series [6], in series [13] and in series [14] were 22%, 44% and 64%, respectively. In addition, the “Plasma Stability: % remaining” value in series [12] is 92%; in [7] it was 100%; in [16], 86%. Further, the half-maximal effective concentration (EC50) is below 100 nM in [1] and above 30000 nM in [4]. The results for the fraction unbound in series [15], in [17] and in [11] were 0.246, 0.315 and 0.015, respectively. Besides, the IC50 in series [8] was above 30000 nM; in series [3] it was 100 to 1000 nM. Further, the solubility in [9] amounted to 43 µM (≈ 20.1 µg/mL).
With `O=C(NC(c1ccc(Cl)cc1)c1ccccn1)C1CCN(CCOc2ccccc2C(F)(F)F)CC1` (centres unmarked) [Compound 6], the “Microsomal Stability: % remaining” value in series [6] was determined as 22%; in series [13], 32%; in series [14] it was 52%. For the same compound, the “Plasma Stability: % remaining” value is listed as 99% in series [12], 98.8% in series [7] and 69.3% in [16]. For the same compound, the EC50 in [1] and in series [4] was above 30000 nM in each case. In addition, the fraction unbound in series [15] came to 0.007; in series [11], 0.008. Further, the IC50 in series [8] and in series [3] was below 100 nM throughout. Also, the Ki in [2] lay within 100 to 1000 nM. The compound further returned a solubility in series [9] of 0.7 µM (≈ 0.363 µg/mL).
With `O=C(NC(c1ccc(Cl)cc1)c1ccccn1)C1CCN(CCOc2cccc(C(F)(F)F)c2)CC1` (centres unmarked) [Compound 7, N-((4-chlorophenyl)(pyridin-2-yl)methyl)-1-(2-(3-(trifluoromethyl)phenoxy)ethyl) piperidine-4-carboxamide], the “Microsomal Stability: % remaining” value in series [6] is 44%; in series [13] it was 76%; in series [14] it was 87%. Further, the “Plasma Stability: % remaining” value is 91.5% in series [12], 100% in series [7] and 93.5% in series [16]. The EC50 in [1] is 100 to 1000 nM; in [4], above 30000 nM. Moreover, the IC50 in series [8] and in series [3] was 100 to 1000 nM throughout. The amount in solution in series [9] (solubility) came to 0.7 µM (≈ 0.363 µg/mL). Moreover, the fraction unbound in [11] is 0.004.
Consider `O=C(NC(c1ccc(Cl)cc1)c1ccc(F)cn1)C1CCN(CCOc2ccccc2F)CC1` (centres unmarked) [Compound 92, N-((4-chlorophenyl)(5-fluoropyridin-2-yl)methyl)-1-(2-(2-fluorophenoxy)ethyl)piperidine-4-carboxamide], for which, in series [6], the “Microsomal Stability: % remaining” value is on record as “m22%”. Moreover, the EC50 in [1] is 100 to 1000 nM; in series [4], above 30000 nM. Moreover, the IC50 in series [8] and in [3] was 100 to 1000 nM in each case. For the same compound, the Ki in series [2] was in the range of 100 to 1000 nM.
Regarding `O=C(NC(c1ccc2c(c1)OCO2)c1ccccn1)C1CCN(CCOc2ccccc2F)CC1` (centres unmarked) [Compound 95, N-(benzo[d][1,3]dioxol-5-yl(pyridin-2-yl)methyl)-1-(2-(2-fluorophenoxy)ethyl) piperidine-4-carboxamide], the “Microsomal Stability: % remaining” value in series [6] is “m33%”. Besides, the figures for the EC50 in series [1] and in series [4] were 100 to 1000 nM and above 30000 nM, respectively. Moreover, the IC50 in [8] and in series [3] was 100 to 1000 nM in each case. In series [2], this compound had an inhibition constant Ki of 100 to 1000 nM.
For `Clc1ccc(C(c2ccccn2)N2CCC3(CCN(CCOc4ccccc4)CC3)C2)cc1` (centres unmarked) [Compound 105, 2-((4-chlorophenyl)(pyridin-2-yl)methyl)-8-(2-phenoxyethyl)-2,8-diazaspiro[4.5]decane], the “Microsomal Stability: % remaining” value in series [6] was “m18%”. Further, the values for the EC50 in series [1] and in series [4] were 100 to 1000 nM and 1000 to 10000 nM, respectively. For the same compound, the IC50 in series [8] is above 30000 nM; in [3], 100 to 1000 nM. The Ki in [2] is below 100 nM.
For the compound `FC(F)(F)CN(CC1CCN(CCOc2ccccc2)CC1)C(c1ccc(Cl)cc1)c1ccccn1` (centres unmarked) [Compound 125, N-((4-chlorophenyl)(pyridin-2-yl)methyl)-2,2,2-trifluoro-N-((1-(2-phenoxyethyl)piperidin-4-yl)methyl)ethanamine], in series [6], the “Microsomal Stability: % remaining” value is listed as “m12%”. For the same compound, the EC50 in [1] is 100 to 1000 nM; in [4], above 30000 nM. Moreover, the IC50 in series [8] and in series [3] was 100 to 1000 nM throughout. The compound further came in with a Ki in series [2] of 100 to 1000 nM.
